PubChem BioAssay (NCI)
“And” between values parts separate entries of the source, which are not always exact repeats. Equal entries are not always repeated.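 Grown in 96-well plates, cells were treated for 48 hours with each compound at five concentrations. Insufficient inhibition: endpoint recorded as highest concentration tested. GI50 marks 50% less growth. TGI denotes the concentration required for complete inhibition of growth.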

Assays:
Assay in all cases: NCI tumour cell line growth inhibition, 48 h
[1] = tested on: MDA-N
[2] = tested on: T-47D breast
[3] = tested on: LXFL 529 NSCLC
[4] = tested on: XF 498 CNS
[5] = tested on: RXF-631 renal
[6] = tested on: DMS 273 small cell lung
[7] = tested on: DLD-1 colon
[8] = tested on: HOP-18 NSCLC
[9] = tested on: SN12K1 renal
[10] = tested on: P388/ADR leukemia
[11] = tested on: P388 leukemia

For `CC(=O)/C(=N\N=C(N)N)c1ccccc1`, the TGI [1] was greater than 100 µM and the TGI [2] was greater than 100 µM.

For `COC(=O)c1c(C(=O)O)c(-c2ccccc2)c(-c2ccccc2)c(-c2ccccc2)c1-c1ccccc1`, the GI50 [2] was 75.7 µM and the TGI [2] was greater than 100 µM.

`CCOC(=O)c1sc(NC(=O)COc2ccc(/C=C3\CCc4cc(OC)ccc4C3=O)cc2)nc1C` was tested, and the GI50 [2] was 9.13 µM and the TGI [2] was 30.7 µM.

Work on `O=C(OCC1=CC(=O)c2ccccc2C1=O)c1ccccc1` yielded a GI50 [2] of 14.6 µM and a TGI [2] of 42.3 µM.

Compound `COc1c2c(c(O)c3c4c(c(C)cc13)C1OC3(C(OC)OC5CC(C)(O)C(OC6CC(C)(O)C(O)C(C)O6)C(C)O5)OC1C(OC)(O4)C31CO1)C(=O)C(O)CC2OC1CC(C)(O)C(OC(C)=O)C(C)O1` (configuration not stated) has a TGI [3] of 0.0889 µM, a TGI [4] of less than 0.01 µM and a TGI [5] of 4.48 µM. For the same compound, the TGI [6] was less than 0.01 µM and the TGI [7] was 4.17 µM.

`O=C1N=C2N=C(c3ccc(Cl)cc3)N(c3ccc(Cl)cc3)N2Sc2ccccc21` showed a TGI [3] greater than 100 µM, a TGI [4] of 99.4 µM and a TGI [8] greater than 100 µM. The TGI [6] was greater than 100 µM and the TGI [7] was greater than 100 µM.

`CCOC(=O)C(Cc1cc(OC)c(CC(C(=O)OCC)C(=O)OCC)cc1OC)C(=O)OCC` was tested, and the TGI [3] was greater than 100 µM, the TGI [4] was 53.7 µM and the TGI [1] was greater than 100 µM. The TGI [6] was greater than 100 µM, the TGI [2] was greater than 100 µM and the TGI [7] was greater than 100 µM.

Work on `CN(Cc1cnc2nc(N)nc(N)c2n1)c1c(Cl)cc(C(=O)NC(CCC(=O)O)C(=O)O)cc1Cl` (configuration not stated) yielded a TGI [2] greater than 100 µM.

`CC(=O)c1nc(-c2ccc(C[C@@H](CNC(=O)CN(C)C)NC(=O)c3ccc(OC(C)C)c(Cl)c3)cc2)cn1C` showed a GI50 [2] of 0.0538 µM and a TGI [2] of 20.1 µM.

For `COC(=O)N[C@@H](C)CNc1nccc(-c2cn(C(C)C)nc2-c2cc(Cl)cc(NS(C)(=O)=O)c2F)n1`, the GI50 [2] was greater than 100 µM and the TGI [2] was greater than 100 µM.

Work on `O=C1c2ccccc2-c2c1c1ccccc1c(=O)n2CCNCCNCCNCCNCCn1c2c(c3ccccc3c1=O)C(=O)c1ccccc1-2` yielded a GI50 [2] of 1.99 µM and a TGI [2] greater than 100 µM.

For `O=C1C(=O)N(c2cc(Cl)ccc2Cl)C(=O)C(=O)C1c1nc2ccccc2s1`, the TGI [3] was greater than 100 µM, the TGI [4] was greater than 100 µM and the TGI [6] was greater than 100 µM. It also gave a TGI [7] greater than 100 µM.

With `CCS(=O)(=O)c1cccc(-c2cc(C(=O)NC3CCN(C)CC3)c(C)c3[nH]c4ncc(C)cc4c23)c1` the GI50 [2] was 0.277 µM and 0.204 µM and the TGI [2] was 4.12 µM and 3.16 µM.

For `CSC(=S)NCc1cn(C)c2ccccc12`, the GI50 [2] was 29.5 µM and the TGI [2] was greater than 100 µM.

Work on `CCOC(=O)/C=C/c1ccc([N+](=O)[O-])o1` yielded a GI50 [2] of 5.55 µM and a TGI [2] of 25.9 µM.

For `COc1ccc(/C=C(\C#N)c2cc(OC)c(OC)c(OC)c2)cc1`, the GI50 [2] was 0.672 µM and the TGI [2] was 61.8 µM.

Compound `CCCCn1c(-c2ccccc2)cs/c1=N\NC(=O)Cn1c(C)nc2ccccc21` has a TGI [3] greater than 100 µM, a TGI [4] greater than 100 µM and a TGI [8] greater than 100 µM. For the same compound, the TGI [6] was greater than 100 µM and the TGI [7] was greater than 100 µM.

For `Cc1c(-c2ccc(-c3ccccc3F)cc2)nc2ccc(F)cc2c1C(=O)O`, the GI50 [4] was 106 µM, the TGI [4] was 164 µM and 230 µM and the GI50 [1] was 0.979 µM and 0.762 µM. The GI50 [8] was 57 µM, the TGI [8] was 192 µM and 182 µM and the TGI [9] was 70.9 µM. The GI50 [10] was 0.5 µM, the TGI [10] was 60 µM and 125 µM and the GI50 [6] was 0.5 µM. The TGI [6] was 29.3 µM and 89.9 µM, the GI50 [2] was 10.2 µM and 79.5 µM and the TGI [2] was 259 µM and 792 µM. The GI50 [7] was 1.58 µM, the TGI [7] was 146 µM and 1040 µM and the GI50 [11] was 0.5 µM. For the same compound, the TGI [11] was 89.8 µM and 106 µM.

In the case of `O=S1(=O)CCC2=CC(C(F)(F)F)=CC(C(F)(F)F)=CN21`, the TGI [3] is reported as 1.6 µM, the TGI [4] is reported as 3.42 µM and the TGI [1] is reported as 35.7 µM. The TGI [8] was 8.27 µM, the TGI [5] was 3.89 µM and the TGI [2] was 0.397 µM. The TGI [7] was 1.77 µM.

Compound `O=C(NCCCN1CCN(CCCNC(=O)Nc2cc(Cl)ccc2Cl)CC1)Nc1cc(Cl)ccc1Cl` has a TGI [3] greater than 100 µM, a TGI [4] greater than 100 µM and a TGI [8] greater than 100 µM. The TGI [6] was greater than 100 µM and the TGI [7] was greater than 100 µM.

For `C[C@]12CCC3c4ccc(O)cc4CCC3C1CC[C@@H]2NC(=O)/C=C/c1ccc(O)c(O)c1` (some centres not stated), the GI50 [2] was 9.57 µM and the TGI [2] was greater than 100 µM.

`CCNC(=O)COc1ccc(Cl)c(C)c1` was tested, and the TGI [3] was greater than 100 µM, the TGI [8] was greater than 100 µM and the TGI [6] was greater than 100 µM. For the same compound, the TGI [7] was greater than 100 µM.

`CCCC(=O)Nc1cc(/C=C/C(=O)N2C[C@@H]3C[C@]34C2=CC(=O)c2[nH]cc(C)c24)n(C)c1` showed a TGI [1] of 0.879 µM and a TGI [2] of 1.08 µM.

With `CC(C)(O)c1cc(Nc2cc(Oc3cn(C4CC4)nc3C3CCOCC3)ccn2)ccn1` the GI50 [2] was 23.6 µM and the TGI [2] was greater than 100 µM.

Compound `CC(NC1CCCC[C@@H]1O)c1ccccc1` (some centres not stated) has a TGI [3] greater than 100 µM, a TGI [4] greater than 100 µM and a TGI [8] greater than 100 µM. For the same compound, the TGI [6] was greater than 100 µM and the TGI [7] was greater than 100 µM.

For `CSCc1ncc(-c2ccc(C(F)(F)F)cc2)c(NC2CCCCCC2)n1`, the GI50 [2] was greater than 10 µM and the TGI [2] was greater than 10 µM.

`C/C(=N\NC(=S)N1CCCC1)c1ccccn1` was tested, and the GI50 [2] was less than 0.01 µM and the TGI [2] was 11 µM.

`OC(Cc1cccc2ccccc12)CN1CCC(c2ccccc2)CC1` (configuration not stated) showed a TGI [1] of 27.3 µM and a TGI [2] of 40.6 µM.

With `c1ccc(N2CCN(CCN3CCc4c([nH]c5ccccc45)C3c3cccnc3)CC2)cc1` (configuration not stated) the TGI [3] was greater than 100 µM, the TGI [4] was greater than 100 µM and the TGI [8] was greater than 100 µM. The TGI [5] was greater than 100 µM, the TGI [6] was greater than 100 µM and the TGI [7] was greater than 100 µM.

`Nc1ccccc1SC(/C=C/NNC1=NC(c2ccccc2)C(c2ccccc2)=NN1)c1ccccc1` (configuration not stated) gave a TGI [6] of 36.8 µM and a TGI [7] of 31.8 µM.

Work on `C[C@]12CC[C@H](OC(=O)Nc3ccccc3)CC1=CC[C@@H]1C2CC[C@]2(C)/C(=N/OC(=O)Nc3ccccc3)CCC12` (some centres not stated) yielded a TGI [3] of 2.52 µM, a TGI [4] of 3.19 µM and a TGI [8] of 37.9 µM. The TGI [5] was greater than 100 µM and the TGI [6] was greater than 100 µM.

Compound `COc1cc(C2CC(c3ccc(Cl)cc3)=NN2C(C)=O)ccc1Oc1ccnc2cc(Cl)ccc12` (configuration not stated) has a GI50 [2] of 2.85 µM and a TGI [2] greater than 100 µM.

Compound `COC(OC)c1cccnc1C` has a TGI [3] greater than 100 µM, a TGI [4] greater than 100 µM and a TGI [8] greater than 100 µM. It also gave a TGI [5] greater than 100 µM, a TGI [6] greater than 100 µM and a TGI [7] greater than 100 µM.

In the case of `Cc1cc(C)nc(NC(=O)COc2ccc(Cl)cc2)c1`, the TGI [1] is reported as greater than 100 µM and the TGI [2] is reported as greater than 100 µM.

In the case of `COc1ccc2c(CN3CCCC[C@H]3O)cc3cc4c(cc3c2c1)OCO4`, the GI50 [2] is reported as 0.393 µM and the TGI [2] is reported as 5.46 µM.
